Source: patent US10980805B2, “Aza-pyridone compounds and uses thereof” (Janssen BioPharma, Inc., priority 2013, dated 2021)
pEC50, pIC50: −log10 of the molar value. Read-outs that look alike come from different tables or passages of the source.

Key:
[1] = tested on: Influenza strain A549_A/WSN/33 (H1N1); test: Influenza antiviral assay (neuraminidase fluorescence readout); type: cell-based, Influenza virus; details: read-out: % Inhibition (EC50 class, Table 2)
[2] = target: Full length EN PA (influenza PA endonuclease) (Influenza A virus, UniProt P15659); test: EN PA FRET inhibition assay; type: biochemical; details: FRET probe, mean of a minimum of two independent experiments, read-out: Potency (IC50 class, Table 3)

CC(C)C(=O)Oc1c2n(ncc1=O)C(C1c3cccc(F)c3CCc3c(F)cccc31)CN(C(C)C)C2=O (stereo not drawn) [Compound 114]
pEC50 ([1]; Influenza A virus): > 4.70
pIC50 [2]: > 6.60

CCN1CC(C(c2ccccc2)c2cccc(Cl)c2)n2ncc(=O)c(O)c2C1=O (stereo not drawn) [Compound 12]
pEC50 ([1]; Influenza A virus): > 4.70
pIC50 [2]: > 6.60

CC(C)N1C[C@@H](C(c2ccccc2)c2cccc(Cl)c2)n2ncc(=O)c(O)c2C1=O (single isomer, unassigned) [Compound 73-B]
pEC50 ([1]; Influenza A virus): > 4.70
pIC50 [2]: 6.00 to 6.60

CN1C[C@H]([C@H](c2ccccc2)c2cccc(OC3CC3)c2)n2ncc(=O)c(O)c2C1=O [Compound 105-B]
pEC50 ([1]; Influenza A virus): > 4.70
pIC50 [2]: > 6.60

CN1CC(C2c3cc(F)ccc3CCc3ccc(F)cc32)n2ncc(=O)c(O)c2C1=O (stereo not drawn) [Compound 45]
pEC50 ([1]; Influenza A virus): > 4.70
pIC50 [2]: > 6.60

O=C1c2c(O)c(=O)cnn2C(C(c2ccccc2)c2ccccc2)CN1C1CCOCC1 (stereo not drawn) [Compound 63]
pEC50 ([1]; Influenza A virus): > 4.70
pIC50 [2]: > 6.60

CC(C)CC(=O)Oc1c2n(ncc1=O)[C@@H](C(c1ccccc1)c1ccccc1)CN(C(C)C)C2=O [Compound 118]
pEC50 ([1]; Influenza A virus): > 4.70
pIC50 [2]: 6.00 to 6.60

CN1CC(C(c2ccccc2)c2cccc(OCC3CC3)c2)n2ncc(=O)c(O)c2C1=O (stereo not drawn) [Compound 55]
pEC50 ([1]; Influenza A virus): 4.00 to 4.70
pIC50 [2]: > 6.60

CC(C)N1CC(C(c2ccccc2)c2ccccc2)n2ncc(=O)c(O)c2C1=O (stereo not drawn) [Compound 6]
pEC50 ([1]; Influenza A virus): > 4.70
pIC50 [2]: > 6.60

O=C1NCC(C(c2ccccc2)c2ccccc2)n2ncc(=O)c(O)c21 (stereo not drawn) [Compound 8]
pEC50 ([1]; Influenza A virus): > 4.70
pIC50 [2]: > 6.60

CC(C)C(=O)Oc1c2n(ncc1=O)[C@@H](C(c1ccccc1)c1ccccc1)CN(C(C)C)C2=O [Compound 69-A]
pEC50 ([1]; Influenza A virus): > 4.70
pIC50 [2]: > 6.60

CN1C[C@H]([C@@H](c2ccccc2)c2cccc(OC3CC3)c2)n2ncc(=O)c(O)c2C1=O [Compound 105-A]
pEC50 ([1]; Influenza A virus): > 4.70
pIC50 [2]: > 6.60

CC(C)N1C[C@H](C2c3cccc(F)c3CCc3c(F)cccc32)n2ncc(=O)c(O)c2C1=O [Compound 51-A]
pEC50 ([1]; Influenza A virus): > 4.70
pIC50 [2]: > 6.60

CN1CC(C(c2cccc(Cl)c2)c2cccc(Cl)c2)n2ncc(=O)c(O)c2C1=O (stereo not drawn) [Compound 28]
pEC50 ([1]; Influenza A virus): > 4.70
pIC50 [2]: > 6.60

CCN1C[C@@H](C(c2cccc(Cl)c2)c2cccc(Cl)c2)n2ncc(=O)c(O)c2C1=O [Compound 39-B]
pEC50 ([1]; Influenza A virus): > 4.70
pIC50 [2]: 6.00 to 6.60

COCC(C)(C)N1CC(C(c2ccccc2)c2ccccc2)n2ncc(=O)c(O)c2C1=O (stereo not drawn) [Compound 90]
pEC50 ([1]; Influenza A virus): > 4.70
pIC50 [2]: > 6.60

CN1CC(C(c2ccc(F)cc2)c2cccc(Cl)c2)n2ncc(=O)c(O)c2C1=O (stereo not drawn) [Compound 61]
pEC50 ([1]; Influenza A virus): > 4.70
pIC50 [2]: > 6.60

C#Cc1ccn([C@H](c2ccccc2)[C@@H]2CN(C)C(=O)c3c(O)c(=O)cnn32)n1 [Compound 109-A]
pEC50 ([1]; Influenza A virus): > 4.70
pIC50 [2]: > 6.60

CC(C)N1CC(C(c2ccccc2)c2cccnc2)n2ncc(=O)c(O)c2C1=O (stereo not drawn) [Compound 135]
pEC50 ([1]; Influenza A virus): > 4.70
pIC50 [2]: > 6.60

CCCCN1C[C@H](C(c2cccc(F)c2)c2cccc(F)c2)n2ncc(=O)c(O)c2C1=O [Compound 87-A]
pEC50 ([1]; Influenza A virus): > 4.70
pIC50 [2]: > 6.60

C[C@@H](N1C[C@@H](C2c3ccccc3CCc3ccccc32)n2ncc(=O)c(O)c2C1=O)C(F)(F)F [Compound 33-B]
pEC50 ([1]; Influenza A virus): > 4.70
pIC50 [2]: > 6.60

CN1CC(C(c2ccccc2)c2cccc(F)c2)n2ncc(=O)c(O)c2C1=O (stereo not drawn) [Compound 23]
pEC50 ([1]; Influenza A virus): > 4.70
pIC50 [2]: > 6.60

CN1C[C@H](C2c3ccc(F)cc3CCc3c(F)cccc32)n2ncc(=O)c(O)c2C1=O (stereo partly drawn) [Compound 81-A]
pEC50 ([1]; Influenza A virus): > 4.70
pIC50 [2]: > 6.60

CN1CC(C(c2ccccc2)c2cccc(O)c2)n2ncc(=O)c(O)c2C1=O (stereo not drawn) [Compound 64]
pEC50 ([1]; Influenza A virus): > 4.70
pIC50 [2]: > 6.60

C[C@H](N1CC(C(c2ccccc2)c2ccccc2)n2ncc(=O)c(O)c2C1=O)C(F)(F)F (stereo partly drawn) [Compound 35-A]
pEC50 ([1]; Influenza A virus): > 4.70
pIC50 [2]: > 6.60

CN1C[C@H]([C@H](c2ccccc2)c2cccc(Cl)c2)n2ncc(=O)c(O)c2C1=O [Compound 9-B]
pEC50 ([1]; Influenza A virus): > 4.70
pIC50 [2]: > 6.60

C[C@@H](N1C[C@H](C(c2ccccc2)c2ccccc2)n2ncc(=O)c(O)c2C1=O)C(F)(F)F [Compound 110-A]
pEC50 ([1]; Influenza A virus): > 4.70
pIC50 [2]: > 6.60

CN1CC(C(c2ccccc2)c2cccc(C#N)c2)n2ncc(=O)c(O)c2C1=O (stereo not drawn) [Compound 100]
pEC50 ([1]; Influenza A virus): > 4.70
pIC50 [2]: > 6.60

CC#Cc1ccn([C@@H](c2ccccc2)[C@H]2CN(C)C(=O)c3c(O)c(=O)cnn32)n1 [Compound 115-B]
pEC50 ([1]; Influenza A virus): > 4.70
pIC50 [2]: > 6.60

CCC#Cc1ccn([C@H](c2ccccc2)[C@@H]2CN(C)C(=O)c3c(O)c(=O)cnn32)n1 [Compound 124]
pEC50 ([1]; Influenza A virus): > 4.70
pIC50 [2]: 6.00 to 6.60

CCN1CC(C(c2ccccc2)c2cccc(C)c2)n2ncc(=O)c(O)c2C1=O (stereo not drawn) [Compound 49]
pEC50 ([1]; Influenza A virus): > 4.70
pIC50 [2]: > 6.60

CCCN1C[C@H](C(c2cccc(F)c2)c2cccc(F)c2)n2ncc(=O)c(O)c2C1=O [Compound 74-A]
pEC50 ([1]; Influenza A virus): > 4.70
pIC50 [2]: > 6.60

O=C1c2c(O)c(=O)cnn2[C@@H](C(c2cccc(F)c2)c2cccc(F)c2)CN1Cc1ccccc1 [Compound 75-A]
pEC50 ([1]; Influenza A virus): > 4.70
pIC50 [2]: > 6.60

CN1CC(C(c2ccccc2)c2cccc(CC#N)c2)n2ncc(=O)c(O)c2C1=O (stereo not drawn) [Compound 99]
pEC50 ([1]; Influenza A virus): 4.00 to 4.70
pIC50 [2]: > 6.60

CCC#Cc1ccn([C@@H](c2ccccc2)[C@H]2CN(C)C(=O)c3c(O)c(=O)cnn32)n1 [Compound 123]
pEC50 ([1]; Influenza A virus): > 4.70
pIC50 [2]: > 6.60

CCN1CC(C(c2cccc(Cl)c2)c2cccc(Cl)c2)n2ncc(=O)c(O)c2C1=O (stereo not drawn) [Compound 39]
pEC50 ([1]; Influenza A virus): > 4.70
pIC50 [2]: > 6.60

CCN1C[C@H](C(c2cccc(F)c2)c2cccc(F)c2)n2ncc(=O)c(OCOC(=O)NCCN3CCOCC3)c2C1=O [Compound 91-A]
pEC50 ([1]; Influenza A virus): 4.00 to 4.70
pIC50 [2]: ≤ 6.00

CC(C)N1C[C@H]([C@@H](c2ccccc2)n2ccc(C#N)n2)n2ncc(=O)c(O)c2C1=O [Compound 127-C]
pEC50 [1]: > 4.70
pIC50 [2]: 6.00 to 6.60

CN1CC(C(c2ccc(F)cc2)c2ccc(F)cc2)n2ncc(=O)c(O)c2C1=O (stereo not drawn) [Compound 38]
pEC50 ([1]; Influenza A virus): > 4.70
pIC50 [2]: > 6.60

CCN1CC(C(c2ccccc2)c2cccc(OC)c2)n2ncc(=O)c(O)c2C1=O (stereo not drawn) [Compound 34]
pEC50 ([1]; Influenza A virus): > 4.70
pIC50 [2]: > 6.60

CN1C[C@H](C2c3ccc(F)cc3CCc3cc(F)ccc32)n2ncc(=O)c(O)c2C1=O [Compound 89-A]
pEC50 ([1]; Influenza A virus): > 4.70
pIC50 [2]: > 6.60

CCC#Cc1ccn(C(c2ccccc2)C2CN(C(C)C)C(=O)c3c(O)c(=O)cnn32)n1 (stereo not drawn) [Compound 126]
pEC50 ([1]; Influenza A virus): > 4.70
pIC50 [2]: > 6.60

CC(C)N1CC(=C2c3ccccc3CCc3ccccc32)n2ncc(=O)c(O)c2C1=O [Compound 30]
pEC50 ([1]; Influenza A virus): 4.00 to 4.70
pIC50 [2]: > 6.60

CN1CC(C2c3cccc(F)c3CCc3c(F)cccc32)n2ncc(=O)c(O)c2C1=O (stereo not drawn) [Compound 83]
pEC50 ([1]; Influenza A virus): > 4.70
pIC50 [2]: > 6.60

C[C@H](N1C[C@H](C2c3ccccc3CCc3ccccc32)n2ncc(=O)c(O)c2C1=O)C(F)(F)F [Compound 33-A]
pEC50 ([1]; Influenza A virus): > 4.70
pIC50 [2]: > 6.60

CC(N1CC(C(c2ccccc2)c2ccccc2)n2ncc(=O)c(O)c2C1=O)C(F)(F)F (stereo not drawn) [Compound 18]
pEC50 ([1]; Influenza A virus): > 4.70
pIC50 [2]: > 6.60

CC(C)[C@H](N)C(=O)OCOc1c2n(ncc1=O)[C@@H](C(c1ccccc1)c1ccccc1)CN(C(C)C)C2=O [Compound 96-A]
pEC50 ([1]; Influenza A virus): > 4.70
pIC50 [2]: > 6.60

CC#Cc1ccn([C@@H](c2ccccc2)[C@@H]2CN(C)C(=O)c3c(O)c(=O)cnn32)n1 [Compound 115-D]
pEC50 ([1]; Influenza A virus): > 4.70
pIC50 [2]: ≤ 6.00

O=C1c2c(O)c(=O)cnn2[C@H](C2c3ccccc3CCc3ccccc32)CN1Cc1ccccc1 [Compound 13-B]
pEC50 ([1]; Influenza A virus): > 4.70
pIC50 [2]: 6.00 to 6.60

CN1C[C@@H]([C@@H](c2ccccc2)c2ccccn2)n2ncc(=O)c(O)c2C1=O [Compound 131]
pEC50 ([1]; Influenza A virus): > 4.70
pIC50 [2]: > 6.60

C#Cc1ccn([C@@H](c2ccccc2)[C@@H]2CN(C)C(=O)c3c(O)c(=O)cnn32)n1 [Compound 109-D]
pEC50 ([1]; Influenza A virus): > 4.70
pIC50 [2]: 6.00 to 6.60

CC#Cc1ccn([C@H](c2ccccc2)[C@H]2CN(C)C(=O)c3c(O)c(=O)cnn32)n1 [Compound 115-C]
pEC50 ([1]; Influenza A virus): > 4.70
pIC50 [2]: > 6.60

CN1CC(Cc2ccccc2-c2ccccc2)n2ncc(=O)c(O)c2C1=O (stereo not drawn) [Compound 19]
pEC50 ([1]; Influenza A virus): > 4.70
pIC50 [2]: > 6.60

C#Cc1ccn([C@H](c2ccccc2)[C@H]2CN(C)C(=O)c3c(O)c(=O)cnn32)n1 [Compound 109-C]
pEC50 ([1]; Influenza A virus): > 4.70
pIC50 [2]: > 6.60
